Data taken from patent publication US9045486B2, “Pyrimidone derivatives and their use in the treatment, amelioration or prevention of a viral disease” (priority 2013, dated 2015).

Molecular target: T1, influenza A virus (IAV) PA-Nter fragment (amino acids 1-209) (Influenza A virus, UniProt P31343)
T1 construct: PA-Nter fragment (amino acids 1-209); made in house
Assay: FRET endonuclease activity assay
Type: biochemical
Conditions: 0.5 μM PA-Nter, 1.6 μM dual-labelled RNA substrate; IC50 from initial reaction velocities (v0)

Row | SMILES | IC50 [nM]
1 | O=C1c2c(OCc3ccccc3)c(=O)nc(CC3(c4ccc(Cl)cc4)CCCC3)n2CCN1CC1CC1 | > 25000
2 | CC(C)N1CCn2c(Cc3ccc(Cl)cc3-c3cccnc3)nc(=O)c(O)c2C1=O | 81
3 | O=C1NCCn2c(Cc3ccccc3-c3ccccc3)nc(=O)c(O)c21 | 60
4 | CC(c1ccccc1)N1CCn2c(CC3(c4ccc(Cl)cc4)CCCC3)nc(=O)c(O)c2C1=O (stereo not shown) | 1130
5 | CC(C)N1CCn2c(CC(C)(C)c3ccccc3)nc(=O)c(O)c2C1=O | 250
6 | CC(C)N1CCn2c(CC3(c4ccccn4)CCCC3)nc(=O)c(O)c2C1=O | 97
7 | CC(C)N1CCn2c(Cc3ccccc3-c3ccc4c(c3)OCO4)nc(=O)c(O)c2C1=O | 229
8 | O=C1c2c(O)c(=O)nc(CC3(c4ccccc4)CCCC3)n2CCN1C1CCOCC1 | 43
9 | O=C1c2c(O)c(=O)nc(CC3(c4cccc5ccccc45)CCCC3)n2CCN1Cc1ccccc1 | 670
10 | O=C1NCCn2c(CC3(c4cccc5ccccc45)CCCC3)nc(=O)c(O)c21 [drawing 722] | 160
11 | CC(C)N1CCn2c(Cc3ccccc3-c3ccccc3)nc(=O)c(O)c2C1=O | 196
12 | CC(C)N1CCn2c(Cc3ccccc3-c3ccc(Cl)cc3)nc(=O)c(O)c2C1=O | 1370
13 | O=C1c2c(O)c(=O)nc(CC3(c4cccc5ccccc45)CCCC3)n2CCN1C1CC1 | 104
14 | CC(C)N1CCn2c(-c3ccccn3)nc(=O)c(O)c2C1=O | 1890
15 | CN1CCn2c(Cc3ccccc3-c3ccccc3Cl)nc(=O)c(O)c2C1=O | 175
16 | CC(C)N1CCn2c(Cc3ccc(Cl)cc3-c3cccc(F)c3)nc(=O)c(O)c2C1=O | 58
17 | CC(C)(C)CN1CCn2c(CC3(c4ccccc4)CCCC3)nc(=O)c(O)c2C1=O | 143
18 | COc1ccc(-c2ccccc2)c(Cc2nc(=O)c(O)c3n2CCN(C(C)C)C3=O)c1 | 430
19 | CC(C)N1CCn2c(CC3(c4ccc(C(F)(F)F)cc4)CCCC3)nc(=O)c(O)c2C1=O | 262
20 | O=C1c2c(O)c(=O)nc(CC3(n4ccc5cccnc54)CCCC3)n2CCN1C1COC1 | 108
21 | CC(C)N1CCn2c(CC3(c4ccc5ccccc5c4)CCCC3)nc(=O)c(O)c2C1=O | 110
22 | CN1CCn2c(CC3(n4ccc5cccnc54)CCCC3)nc(=O)c(O)c2C1=O | 80
23 | CC(C)N1CCn2c(CC3(c4ccccc4)CCC(F)(F)CC3)nc(=O)c(O)c2C1=O | 84

Row | SMILES | IC50 [nM]
24 | CC(C)N1CCn2c(CC3(n4ccc5cccnc54)CCCC3)nc(=O)c(O)c2C1=O | 20
25 | CC(c1ccccc1-c1ccccc1)c1nc(=O)c(O)c2n1CCN(C(C)C)C2=O (stereo not shown) | 1700
26 | O=C1c2c(O)c(=O)nc(CC3(c4ccc(Cl)cc4)CCCC3)n2CCN1C1CCOCC1 | 60
27 | O=C1c2c(O)c(=O)nc(CC3(c4cccc5ccccc45)CCCC3)n2CCN1CC1CC1 | 140
28 | O=C1c2c(O)c(=O)nc(CC3(c4cccc5ccccc45)CCCC3)n2CCN1C1CCOCC1 | 110
29 | CC(C)N1CCn2c(Cc3ccccc3-c3ccc(F)cc3)nc(=O)c(O)c2C1=O | 1550
30 | CC(C)N1CCn2c(Cc3ccccc3-c3ccncc3)nc(=O)c(O)c2C1=O | 94
31 | CC(C)N1CCn2c(CC3(c4cccc5ccccc45)CCCC3)nc(=O)c(O)c2C1=O | 270
32 | CC(C)N1CCn2c(Cc3cccc4ccccc34)nc(=O)c(O)c2C1=O | 1810
33 | CC(C)N1CCn2c(CC3(c4ccc(Cl)c(Cl)c4)CCCC3)nc(=O)c(O)c2C1=O | 610
34 | CC(C)N1CCn2c(CC3(c4cccc(Cl)c4)CCCC3)nc(=O)c(O)c2C1=O | 320
35 | CC(C)N1CCn2c(Cc3ccc(Cl)cc3-c3ccc(Cl)cc3)nc(=O)c(O)c2C1=O | 266
36 | CC(C)N1CCn2c(Cc3ccccc3-c3ccc(C(F)(F)F)c(F)c3)nc(=O)c(O)c2C1=O | 380
37 | CC(C)N1CCn2c(Cc3ccccc3-c3cccc(F)c3F)nc(=O)c(O)c2C1=O | 200
38 | CN1CCn2c(CC3(c4cccc5ccccc45)CCCC3)nc(=O)c(O)c2C1=O | 110
39 | O=C1c2c(OCc3ccccc3)c(=O)nc(CC3(c4ccccc4)CCCC3)n2CCN1C1CCOCC1 | > 25000
40 | CC(C)N1CCn2c(Cc3cccc(Cl)c3Cl)nc(=O)c(O)c2C1=O | 350
41 | CC(C)N1CCn2c(Cc3ccccc3-c3ccccc3Cl)nc(=O)c(O)c2C1=O | 657
42 | CC(C)N1CCn2c(CC3(c4ccc(Cl)cc4)CCCC3)nc(=O)c(O)c2C1=O | 252
43 | CC(C)N1CCn2c(Cc3ccccc3-c3cccc(Cl)c3Cl)nc(=O)c(O)c2C1=O | 370
44 | CN1CCn2c(CC3(c4ccccc4)CCCC3)nc(=O)c(O)c2C1=O | 116
45 | CC(C)N1CCn2c(CC3(c4ccccc4)CCCC3)nc(=O)c(O)c2C1=O | 93
46 | O=C1c2c(O)c(=O)nc(CC3(c4ccccc4)CCCC3)n2CCN1Cc1ccc(F)cc1 | 422

Row | SMILES | IC50 [nM]
47 | CC(C)N1CCn2c(Cc3ccc(Cl)cc3-c3ccncc3)nc(=O)c(O)c2C1=O | 110
48 | CC(C)N1CCn2c(Cc3ccccc3-c3ccc(Cl)c(Cl)c3)nc(=O)c(O)c2C1=O | 2510
49 | CC(C)N1CCn2c(Cc3ccccc3C3CCCCC3)nc(=O)c(O)c2C1=O | 114
50 | O=C1c2c(O)c(=O)nc(CC3(n4ccc5cccnc54)CCCC3)n2CCN1C1CC1 | 92
51 | O=C1c2c(O)c(=O)nc(CC3(n4ccc5cccnc54)CCCC3)n2CCN1C1CCC1 | 173
52 | CC(C)N1CCn2c(Cc3ccccc3-c3ccc(F)c(F)c3)nc(=O)c(O)c2C1=O | 1060
53 | O=C1c2c(O)c(=O)nc(CC3(c4ccccc4)CCCC3)n2CCN1C1CC1 | 98
54 | CC(N1CCn2c(CC3(c4ccc(Cl)cc4)CCCC3)nc(=O)c(O)c2C1=O)C(F)(F)F (stereo not shown) | 296
55 | CN1CCn2c(CC3(c4ccc(Cl)cc4)CCCC3)nc(=O)c(O)c2C1=O | 160
56 | CC(C)N1CCn2c(Cc3ccccc3-c3cccc(F)c3)nc(=O)c(O)c2C1=O | 380
57 | CC(C)N1CCn2c(Cc3ccccc3-c3ccc(C(F)(F)F)cc3)nc(=O)c(O)c2C1=O | 320
58 | CC(C)N1CCn2c(CC3(c4ccc(C#N)cc4)CCCC3)nc(=O)c(O)c2C1=O | 41
59 | CC(C)N1CCn2c(Cc3c(Cl)cccc3Cl)nc(=O)c(O)c2C1=O [drawing 10] | 392
60 | CC(C)N1CCn2c([C@@H]3CCC[C@@H]3c3ccccc3)nc(=O)c(O)c2C1=O | 500
61 | CC(C)N1CCn2c(Cc3ccc(Cl)cc3-c3ccc(F)cc3)nc(=O)c(O)c2C1=O | 436
62 | CN1CCn2c(CC3(c4ccccn4)CCCC3)nc(=O)c(O)c2C1=O | 63
63 | CC(C)N1CCn2c(CC3(c4cccc(C(F)(F)F)c4)CCCC3)nc(=O)c(O)c2C1=O | 460
64 | CC(C)N1CCn2c(Cc3ccccc3-c3ccc(C#N)cc3)nc(=O)c(O)c2C1=O | 300
65 | CC(C)N1CCn2c(Cc3c(Cl)cccc3Cl)nc(=O)c(O)c2C1=O [drawing 18] | 390
66 | O=C1c2c(O)c(=O)nc(CC3(c4ccc(Cl)cc4)CCCC3)n2CCN1Cc1ccccc1 | 990
67 | O=C1NCCn2c(CC3(c4cccc5ccccc45)CCCC3)nc(=O)c(O)c21 [drawing 712] | 162
68 | O=C1c2c(OCc3ccccc3)c(=O)nc(CC3(n4ccc5cccnc54)CCCC3)n2CCN1CC1CC1 | > 25000
69 | O=C1NCCn2c(CC3(c4ccc(Cl)cc4)CCCC3)nc(=O)c(O)c21 | 1270

Row | SMILES | IC50 [nM]
70 | CC(C)N1CCn2c(Cc3ccccc3-c3ccc(OC(F)(F)F)cc3)nc(=O)c(O)c2C1=O | 550
71 | O=C1c2c(O)c(=O)nc(CC3(c4ccccc4)CCCC3)n2CCN1CC1CC1 | 138
72 | O=C1c2c(O)c(=O)nc(CC3(n4ccc5cccnc54)CCCC3)n2CCN1CC1CC1 | 141
73 | O=C1c2c(O)c(=O)nc(CC3(c4ccc(Cl)cc4)CCCC3)n2CCN1c1ccccc1 | 1180
74 | CC(C)N1CCn2c(CC(C)(C)n3ccc4ccccc43)nc(=O)c(O)c2C1=O | 240
75 | CC(C)N1CCn2c(CC3(c4cc(Cl)ccc4Cl)CCCC3)nc(=O)c(O)c2C1=O | 295
76 | CC(C)N1CCn2c([C@H]3CCC[C@H]3c3ccccc3)nc(=O)c(O)c2C1=O | 230
77 | CC(C)N1CCn2c(Cc3ccc(Cl)cc3Br)nc(=O)c(OCc3ccccc3)c2C1=O | > 25000
78 | CC(C)N1CCn2c(Cc3cc(O)ccc3-c3ccccc3)nc(=O)c(O)c2C1=O | 146
79 | O=C1c2c(O)c(=O)nc(CC3(c4cccc5ccccc45)CCCC3)n2CCN1C1COC1 | > 25000
80 | O=C1c2c(O)c(=O)nc(CC3(c4ccc(Cl)cc4)CCCC3)n2CCN1CC1CC1 | 205
81 | O=C1c2c(O)c(=O)nc(CC3(c4ccccc4)CCCC3)n2CCN1C1COC1 | 134
82 | CC(C)c1ccc(-c2ccccc2Cc2nc(=O)c(O)c3n2CCN(C(C)C)C3=O)cc1 | 700
83 | CSc1ccc(-c2ccccc2Cc2nc(=O)c(O)c3n2CCN(C(C)C)C3=O)cc1 | 116
84 | O=C1c2c(O)c(=O)nc(CC3(c4ccccc4)CCCC3)n2CCN1C1CCC1 | 102
85 | CC(C)N1CCn2c(Cc3cscc3-c3ccccc3)nc(=O)c(O)c2C1=O | 1390
86 | O=C1c2c(O)c(=O)nc(CC3(c4ccccc4)CCCC3)n2CCN1C1CCCC1 | 521
87 | O=C1c2c(O)c(=O)nc(CC3(c4ccc(Cl)cc4)CCCC3)n2CCN1C1CC1 | 730
88 | COc1ccc(-c2ccccc2Cc2nc(=O)c(O)c3n2CCN(C(C)C)C3=O)cc1 | 122
89 | CC(C)N1CCn2c(CC3(c4cc(C(F)(F)F)cc(C(F)(F)F)c4)CCCC3)nc(=O)c(O)c2C1=O | 318
90 | CC(C)N1CCn2c(CC3(c4ccccc4)CCCCC3)nc(=O)c(O)c2C1=O | 120
91 | CC(C)N1CCn2c(Cc3ncccc3-c3ccccc3)nc(=O)c(O)c2C1=O | 380
